Patent publication US20090233868A1, “Small antiviral peptides against hepatitis C virus” (priority 2005, published 2009)
Where no end group is shown, it is not given here.

Experiments:
[1] = test system: HCV IRES mediated translation; test: In vitro translation of uncapped HCV-IRES-Luc monocistronic RNA in rabbit reticulocyte lysate; assay type: biochemical, hepatitis C virus; settings: RRL; for IC50: uncapped HCV IRES-Luc RNA, data not shown, read-out: IC50 for inhibition of HCV IRES mediated translation
[2] = test system: HCV IRES RNA; test: UV-crosslinking assay with [32P] labeled HCV IRES RNA; assay type: binding, hepatitis C virus; settings: 2 μM and 4 μM peptide; FIG. 6A
[3] = test system: Huh7 cells; test: Internalization of fluorescein labeled hexa-arginine-tagged peptides; assay type: cell-based; settings: fluorescein tagged peptide, 3 hours incubation; FIG. 6B
[4] = test system: HCV IRES mediated translation; test: HCV bicistronic construct luciferase assay in Huh7 cells with arginine-tagged peptides; assay type: cell-based, hepatitis C virus; settings: 2 μM peptide, 4 hours or 6 hours
[5] = test system: HCV monocistronic replicon; test: HCV negative strand real time PCR in Huh7 cells harboring HCV monocistronic replicon; assay type: cell-based, hepatitis C virus
[6] = test system: cap-dependent translation; test: In vitro translation of capped Luciferase RNA in RRL; assay type: biochemical, rabbit; settings: 15, 30, 60 μM peptide; FIG. 5C
[7] = test system: IRES mediated translation of hepatitis A virus; assay type: biochemical
[8] = test system: Polio virus IRES function; assay type: biochemical; settings: at higher concentration (15, 30, 60 μM tested); FIG. 5E
[9] = test system: HCV IRES mediated translation; test: In vitro translation of capped HCV bicistronic RNA in RRL; settings: 15, 30, 60 μM peptide; FIG. 5D

Substance	IC50 [1] [µM]	RNA binding activity of hexa-arginine tagged peptides (UV cross-linking) [2]	Internalization into Huh7 cells (fluorescence microscope) [3]	Inhibition of HCV IRES mediated translation over the control in Huh7 cells [4]	Decrease in levels of HCV negative strand RNAs compared to untreated cells ([5]; 4 μM peptide added at 0 and 12th hour, RNA at 24th hour) [%]	Inhibitory activity on HCV negative strand synthesis ([5]; 10 μM peptide, data not shown)	Translation inhibitory activity on HCV IRES-Luc RNA ([1]; 30 and 60 μM (FIG. 3C) or 15, 30 and 60 μM (FIG. 5A, 5B))	Inhibition of capped-Luciferase RNA translation (cap-dependent) [6]	Inhibition of IRES mediated translation of hepatitis A virus [7]	Inhibition of Polio virus IRES function [8]	Inhibition of HCV IRES (Fluc) vs cap dependent (Rluc) translation of bicistronic RNA [9]
KYKETDLLILFKDDYFAKKNEERK [LaR2C]	30	–	–	–	–	–	–	–	–	–	–
RRRRRRKYKETDL [Arg-LaR2C-N7]	–	showed RNA binding activity	internalized inside Huh7 cells	up to 70%	~50	considerable increase in the inhibitory activity	–	–	–	–	–
KYKETDL [LaR2C-N7]	~40	–	–	–	–	–	only slightly weaker than the 24-mer peptide	did not show significant inhibition	failed to inhibit	significant inhibition	selective inhibition of HCV IRES mediated translation
